Data set [1] can be described thus: Metabolic stability in rat blood assessed as compound remaining at 1 uM after 4 hrs by LC-MS/MS analysis. Type of data set: ADME, tissue-based. Conditions: read-out: Stability; call rule not given here.
Data set [2] concerns the target T1, E3 ubiquitin-protein ligase XIAP (Homo sapiens, UniProt P98170).
Data set [3] is described as follows: Cmax in mouse at 1 mg/kg, iv. The following applies: in vivo. Type of data set: ADME, organism-based. Also noted: dose 1 mg/kg, route intravenous.
Data set [4] in a line: AUC in mouse at 1 mg/kg, iv. Type of data set: ADME, organism-based. Also noted: dose 1 mg/kg, route intravenous. The following applies: plasma.
For data set [5], the target named is T2, Cytochrome P450 3A4 (Homo sapiens, UniProt P08684). The data set can be described thus: Inhibition of CYP3A4 (unknown origin). It counts as ADME.
T2 sequence (P08684 whole entry): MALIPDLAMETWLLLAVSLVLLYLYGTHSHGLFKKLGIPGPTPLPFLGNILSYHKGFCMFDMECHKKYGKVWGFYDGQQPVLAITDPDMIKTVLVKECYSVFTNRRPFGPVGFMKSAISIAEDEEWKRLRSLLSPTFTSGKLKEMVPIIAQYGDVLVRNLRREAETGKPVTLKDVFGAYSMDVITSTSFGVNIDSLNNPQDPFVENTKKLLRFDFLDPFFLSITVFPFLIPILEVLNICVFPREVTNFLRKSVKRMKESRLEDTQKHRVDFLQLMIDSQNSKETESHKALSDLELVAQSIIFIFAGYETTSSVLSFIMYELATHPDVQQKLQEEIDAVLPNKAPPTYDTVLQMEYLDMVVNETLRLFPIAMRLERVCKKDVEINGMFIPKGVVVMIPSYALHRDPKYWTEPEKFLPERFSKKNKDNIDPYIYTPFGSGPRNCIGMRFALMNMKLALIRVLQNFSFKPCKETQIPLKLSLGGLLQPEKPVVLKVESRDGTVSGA
Data set [6] can be described thus: Cmax in mouse at 10 mg/kg, po. Also noted: dose 10 mg/kg, route oral. Type of data set: ADME, organism-based. The following applies: in vivo.
Data set [7] in a line: Clearance in mouse at 1 mg/kg, iv. It counts as ADME, organism-based. More on the design: dose 1 mg/kg, route intravenous. The following applies: in vivo.
Data set [8] can be described thus: Volume of distribution at steady state in mouse at 1 mg/kg, iv. Type of data set: ADME, organism-based. More on the design: dose 1 mg/kg, route intravenous. Conditions: in vivo, read-out: Vdss.
The target of data set [9] is T3, Baculoviral IAP repeat-containing protein 2 (Homo sapiens, UniProt Q13490). Put plainly: Inhibition of His-thrombin-TEV-tagged cIAP1 BIR2 domain (174 to 256) (unknown origin) after 1 hr by TR-FRET assay. A general note: Time-resolved FRET reads energy transfer from a long-lived donor to a nearby acceptor.
T3 sequence (Q13490 whole entry, the tested form may be a part): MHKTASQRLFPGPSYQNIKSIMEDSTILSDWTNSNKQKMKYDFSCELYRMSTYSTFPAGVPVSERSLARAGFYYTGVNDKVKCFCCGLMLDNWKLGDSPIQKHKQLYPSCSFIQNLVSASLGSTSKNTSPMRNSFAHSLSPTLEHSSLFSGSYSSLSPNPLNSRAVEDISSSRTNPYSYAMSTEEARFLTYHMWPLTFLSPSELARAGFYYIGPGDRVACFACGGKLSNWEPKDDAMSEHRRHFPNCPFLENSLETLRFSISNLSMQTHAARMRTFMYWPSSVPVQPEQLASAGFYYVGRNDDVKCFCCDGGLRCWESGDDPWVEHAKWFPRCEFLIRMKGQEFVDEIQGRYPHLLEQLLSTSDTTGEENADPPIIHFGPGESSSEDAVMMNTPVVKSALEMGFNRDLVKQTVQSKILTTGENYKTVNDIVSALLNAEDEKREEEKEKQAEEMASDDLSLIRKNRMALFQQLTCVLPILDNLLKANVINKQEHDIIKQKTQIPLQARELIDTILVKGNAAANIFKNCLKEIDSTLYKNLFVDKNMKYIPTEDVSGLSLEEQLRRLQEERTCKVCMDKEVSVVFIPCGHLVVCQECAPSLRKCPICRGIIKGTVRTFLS
A short description of data set [10]: Half life in mouse at 10 mg/kg, po. It counts as ADME, organism-based. More on the design: dose 10 mg/kg, route oral. Conditions: in vivo.
A short description of data set [11]: Oral bioavailability in mouse at 10 mg/kg. It counts as ADME, organism-based. The following applies: in vivo.
Data set [12] in a line: AUC in mouse at 10 mg/kg, po. Type of data set: ADME, organism-based. More on the design: dose 10 mg/kg, route oral. Conditions: plasma.
A short description of data set [13]: Half life in mouse at 1 mg/kg, iv. It counts as ADME, organism-based. More on the design: dose 1 mg/kg, route intravenous. The following applies: in vivo.
Data set [14] has as its target T2, Cytochrome P450 3A4. The data set can be described thus: Time dependent inhibition of CYP3A4 (unknown origin). Type of data set: ADME.
Data set [15] has as its target T3, Baculoviral IAP repeat-containing protein 2. The data set can be described thus: Inhibition of His-thrombin-TEV-tagged cIAP1 BIR3 domain (260 to 352) (unknown origin) after 1 hr by TR-FRET assay.
Data set [16] has as its target T2, Cytochrome P450 3A4. The data set can be described thus: Induction of CYP3A4 (unknown origin). Type of data set: ADME.
Data set [17] in a line: Clearance in rat at 2 mg/kg, iv. It counts as ADME, organism-based. Also noted: dose 2 mg/kg, route intravenous. Conditions: in vivo.
The test system of another data set is Plasma. The data set can be described thus: In vivo metabolic stability in rat plasma assessed as hydrolysis of the alanine amide at 4 mg/kg, iv. It counts as ADME, organism-based. Also noted: dose 4 mg/kg, route intravenous.
A short description of data set [18]: In vivo metabolic stability in rat urine assessed as hydrolysis of the alanine amide at 4 mg/kg, iv. Type of data set: ADME, organism-based. Also noted: dose 4 mg/kg, route intravenous.
Data set [19] deals with T1, E3 ubiquitin-protein ligase XIAP. The source holds these as a separate data set.
Data set [20] has as its system Hepatocyte. Put plainly: Drug metabolism in rat hepatocytes assessed as demethylation of N-methyl-L-alanine. Type of data set: ADME, cell-based.
The test system of data set [21] is Hepatocyte. Put plainly: Drug metabolism in human hepatocytes assessed as demethylation of N-methyl-L-alanine. It counts as ADME, cell-based.
Data set [22] relates to Hepatocyte. The data set can be described thus: Drug metabolism in rat hepatocytes assessed as demethylation of methoxy group of naphthalene. It counts as ADME, cell-based.
Data set [23] concerns Hepatocyte. Put plainly: Drug metabolism in human hepatocytes assessed as demethylation of methoxy group of naphthalene. It counts as ADME, cell-based.

Bounds are passed on as bounds.

As usually defined, the IC50 is the concentration that gives 50% inhibition. Read a high IC50 as a need for much substance. As a reminder, the Cmax is the maximum level reached in the sampled fluid or tissue. Usually AUC stands for concentration integrated over time. Higher therefore signals high exposure. A word on the clearance: it is the volume of plasma or blood freed of the substance per unit of time. High values mean efficient removal, low ones inefficient removal. Broadly, the half-life is the time in which the quantity being followed falls by half. A word on the bioavailability: it is dose-corrected exposure relative to a reference, in per cent. Low readings indicate little systemic uptake, high ones much systemic uptake.

T1 sequence (P98170 whole entry): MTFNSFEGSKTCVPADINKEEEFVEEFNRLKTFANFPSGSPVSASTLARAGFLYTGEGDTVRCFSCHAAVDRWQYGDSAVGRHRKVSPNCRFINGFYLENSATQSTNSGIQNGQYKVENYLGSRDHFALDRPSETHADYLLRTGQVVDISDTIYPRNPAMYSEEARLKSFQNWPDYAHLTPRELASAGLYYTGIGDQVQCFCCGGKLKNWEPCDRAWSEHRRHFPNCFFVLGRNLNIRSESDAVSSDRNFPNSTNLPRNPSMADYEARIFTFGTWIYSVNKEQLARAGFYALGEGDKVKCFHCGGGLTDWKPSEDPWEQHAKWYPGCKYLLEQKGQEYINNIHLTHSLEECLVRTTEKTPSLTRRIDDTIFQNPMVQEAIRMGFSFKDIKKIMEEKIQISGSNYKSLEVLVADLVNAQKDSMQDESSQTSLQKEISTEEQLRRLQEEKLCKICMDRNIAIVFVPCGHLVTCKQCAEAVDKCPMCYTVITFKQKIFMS

`CN[C@@H](C)C(=O)N[C@H]1COc2ccccc2N(Cc2c(OC)ccc3cc(Br)ccc23)C1=O`: in data set [1], the remaining at 4 h, 1 µM is 7%.

`CN[C@@H](C)C(=O)N[C@H]1CCc2ccccc2N(Cc2ccc3ccccc3c2)C1=O` returned an IC50 in data set [2] greater than 54 µM.

As to `CN[C@@H](C)C(=O)N[C@@H]1C(=O)N(Cc2c(C#N)n(-c3ccccc3C#N)c3ccccc23)c2ccccc2OC12CCOCC2.Cl`, the Cmax in [3] was 495 ng/mL; in data set [6], 647 ng/mL. Further, the AUC in data set [4] came to 543 ng·h/mL; in data set [12], 2860 ng·h/mL. The “inhibition (INH)” value against Cytochrome P450 3A4 [5] and on Cytochrome P450 3A4 [14] was “Active” throughout. Besides, in [7], the clearance came to 33 mL/min/kg. The Vd in data set [8] came to 8.6 L/kg. Moreover, the IC50 in data set [9] is 0.271 µM; in data set [15], greater than 55 µM. The results for the half-life in data set [10] and in data set [13] were 5 h and 6.9 h, respectively. The same compound returned a bioavailability in data set [11] of 53%. Moreover, the outcome on Cytochrome P450 3A4 [16] was Active.

As to `CN[C@@H](C)C(=O)N[C@@H]1C(=O)N(Cc2nn(-c3ccccc3C#N)c3ccccc23)c2ccccc2OC12CCOCC2`, the IC50 in data set [2] was greater than 54.8 µM.

Consider `CN[C@@H](C)C(=O)N[C@H]1CCc2ccccc2N(Cc2ccc(C)c3ccccc23)C1=O`, for which the IC50 in data set [2] is greater than 54 µM.

`CN[C@@H](C)C(=O)N[C@H]1CCc2ccccc2N(Cc2c(OC)ccc3ccccc23)C1=O`: the concentration for half-maximal inhibition (IC50) in data set [2] was greater than 54 µM.

`CN[C@@H](C)C(=O)N[C@H]1CCc2ccccc2N(Cc2c(OC)ccc3cc(Br)ccc23)C1=O.Cl` had a clearance in data set [17] of 116 mL/min/kg. Besides, the Stability result (in the data set with Plasma; in [18]) was “Unstable” throughout. Moreover, the remaining at 4 h, 1 µM in data set [1] came to 40%. In data set [2], this compound displayed a half-inhibitory concentration (IC50) greater than 54 µM.

As for `CN[C@@H](C)C(=O)N[C@H]1CCc2ccccc2N(Cc2c(C)ccc3ccccc23)C1=O`, the IC50 in data set [2] was greater than 54 µM.

Compound `CN[C@@H](C)C(=O)N[C@H]1CCc2ccccc2N(CCc2ccccc2)C1=O` registered an IC50 in data set [2] greater than 54 µM.

Take `C[C@H](N)C(=O)N[C@@H]1C(=O)N(C)CCc2ccccc21`: the IC50 is 14.4 µM in data set [19] and greater than 54.2 µM in data set [2].

As to `CN[C@@H](C)C(=O)N[C@H]1CCc2ccccc2N(Cc2cccc3ccccc23)C1=O`, the IC50 in [2] was greater than 54 µM.

In the case of `CN[C@H](C)C(=O)N[C@H]1CCc2ccccc2N(Cc2c(OC)ccc3cc(Br)ccc23)C1=O`, the IC50 in data set [2] is greater than 54 µM.

`CN[C@@H](C)C(=O)N[C@@H]1C(=O)N(Cc2c(OC)ccc3cc(Br)ccc23)c2ccccc2OC12CCOCC2.Cl`: the Drug metabolism result in the data set with Hepatocyte [20], in the data set with Hepatocyte [21], with Hepatocyte [22] and in the data set on Hepatocyte [23] was “Active” each time. Further, the remaining at 4 h, 1 µM in data set [1] was found to be 88%.

Regarding `CCN[C@@H](C)C(=O)N[C@H]1CCc2ccccc2N(Cc2c(OC)ccc3cc(Br)ccc23)C1=O`, the IC50 in data set [2] was greater than 54 µM.

`CN[C@@H](C)C(=O)N[C@H]1CCc2ccccc2N(Cc2ccccc2)C1=O` gave an IC50 in [2] greater than 54 µM.

For `COc1ccc2cc(Br)ccc2c1CN1C(=O)[C@@H](NC(=O)[C@@H](N)[C@H](C)O)CCc2ccccc21`, the IC50 in [2] is greater than 54 µM.

Values taken from ChEMBL document CHEMBL2429856, “Benzazepinones and benzoxazepinones as antagonists of inhibitor of apoptosis proteins (IAPs) selective for the second baculovirus IAP repeat (BIR2) domain” (J Med Chem, 2013).
